From patent publication US20250034167A1, “HETEROCYCLIC COMPOUNDS AND METHODS OF USE” (AMGEN INC., priority 2021, published 2025)

Legend:
[1] = molecular target: His-tagged KRAS G12D protein (Homo sapiens, UniProt P01116, G12D); assay: biochemical
[2] = tested on: Phosphorylation of ERK1/2 in AsPC-1 cells; assay: Phospho-ERK1/2 MSD Assay; assay type: cell-based; details: Homo sapiens, ASPC1, 2 h, read-out: 2 h p-ERK (AsPC-1 cells), IC50, AsPC-1 cells, 2 h compound treatment
Method: Sixteen hours prior to compound treatment, AsPC-1 cells were seeded in 96-well cell culture plates at a density of 25,000 cells/well and incubated at 37° C., 5% CO2. A compound dose-response titration was diluted in growth media, added to appropriate wells of a cell culture plate, and then incubated at 37° C., 5% CO2 for 2 hours.

Chain of His-tagged KRAS G12D protein (P01116 1-188 isoform P01116-2 G12D): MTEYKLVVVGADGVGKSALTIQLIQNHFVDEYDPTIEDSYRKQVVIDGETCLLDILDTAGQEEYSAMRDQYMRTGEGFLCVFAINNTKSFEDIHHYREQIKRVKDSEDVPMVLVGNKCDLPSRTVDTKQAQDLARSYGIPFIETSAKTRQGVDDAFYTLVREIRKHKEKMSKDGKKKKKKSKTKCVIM

Row | Structure (SMILES) | IC50 [1] [nM] | IC50 [2] [nM]
1 | CCC1CCCc2cc(O)cc(-c3ncc4c(N5CCC[C@@](C)(O)C5)nc(OC[C@@]56CCCN5C[C@H](F)C6)nc4c3F)c21 (single isomer, unassigned) [Example 173] | 4 | 22
2 | CCc1c(F)ccc2cc(O)cc(-c3ncc4c(N5CCC[C@@H](S(N)(=O)=O)C5)nc(OC[C@@]56CCCN5C[C@H](F)C6)nc4c3F)c12 [Example 1, (R)-1-(7-(8-Ethyl-7-fluoro-3-hydroxynaphthalen-1-yl)-8-fluoro-2-(((2R,7aS)-2-fluorotetrahydro-1H-pyrrolizin-7a(5H)-yl)methoxy)pyrido[4,3-d]pyrimidin-4-yl)piperidine-3-sulfonamide] | 1 | 165
3 | CCc1c(F)ccc2cc(O)cc(-c3ncc4c(N5CCC[C@H](S(N)(=O)=O)C5)nc(OC[C@@]56CCCN5C[C@H](F)C6)nc4c3F)c12 [Example 7, (S)-1-(7-(8-Ethyl-7-fluoro-3-hydroxynaphthalen-1-yl)-8-fluoro-2-(((2R,7aS)-2-fluorotetrahydro-1H-pyrrolizin-7a(5H)-yl)methoxy)pyrido[4,3-d]pyrimidin-4-yl)piperidine-3-sulfonamide] | 37 | > 10000
4 | Oc1cc(-c2ncc3c(N4CCC[C@@H](O)C4)nc(OC[C@@]45CCCN4C[C@H](F)C5)nc3c2F)c2c(F)c(F)ccc2c1 [Example 12, (R)-1-(7-(7,8-Difluoro-3-hydroxynaphthalen-1-yl)-8-fluoro-2-(((2R,7aS)-2-fluorotetrahydro-1H-pyrrolizin-7a(5H)-yl)methoxy)pyrido[4,3-d]pyrimidin-4-yl)piperidin-3-ol] | 2 | 377
5 | CCc1cccc2cc(O)cc(-c3ncc4c(N5CCC[C@@H](O)C5)nc(OC[C@@]56CCCN5C[C@H](F)C6)nc4c3F)c12 [Example 13, (R)-1-(7-(8-Ethyl-3-hydroxynaphthalen-1-yl)-8-fluoro-2-(((2R,7aS)-2-fluorotetrahydro-1H-pyrrolizin-7a(5H)-yl)methoxy)pyrido[4,3-d]pyrimidin-4-yl)piperidin-3-ol] | 2 | 107
6 | Oc1cc(-c2ncc3c(N4CC5CC(O)C(C5)C4)nc(OC[C@@]45CCCN4C[C@H](F)C5)nc3c2F)c2c(F)c(F)ccc2c1 (stereo partly drawn) [Example 18, 3-(7-(7,8-Difluoro-3-hydroxynaphthalen-1-yl)-8-fluoro-2-(((2R,7aS)-2-fluorotetrahydro-1H-pyrrolizin-7a(5H)-yl)methoxy)pyrido[4,3-d]pyrimidin-4-yl)-3-azabicyclo[3.2.1]octan-6-ol] | 3 | 105
7 | CCc1c(F)ccc2cc(O)cc(-c3ncc4c(N5CCCC(CO)(CCl)C5)nc(OC[C@@]56CCCN5C[C@H](F)C6)nc4c3F)c12 (stereo partly drawn) [Example 22, 4-(4-(3-(Chloromethyl)-3-(hydroxymethyl)piperidin-1-yl)-8-fluoro-2-(((2R,7aS)-2-fluorotetrahydro-1H-pyrrolizin-7a(5H)-yl)methoxy)pyrido[4,3-d]pyrimidin-7-yl)-5-ethyl-6-fluoronaphthalen-2-ol] | 4 | 297
8 | C[C@@]1(O)CCCN(c2nc(OC[C@@]34CCCN3C[C@H](F)C4)nc3c(F)c(-c4cccc5ccc(F)c(F)c45)ncc23)C1 [Example 49, (R)-1-(7-(7,8-Difluoronaphthalen-1-yl)-8-fluoro-2-(((2R,7aS)-2-fluorotetrahydro-1H-pyrrolizin-7a(5H)-yl)methoxy)pyrido[4,3-d]pyrimidin-4-yl)-3-methylpiperidin-3-ol] | 17 | 991

Now from value to molecule:

Row | IC50 [1] [nM] | IC50 [2] [nM] | Structure (SMILES)
9 | 1 | 115 | CCc1c(F)ccc2cc(O)cc(-c3ncc4c(N5CCCCCC5)nc(OC[C@@]56CCCN5C[C@H](F)C6)nc4c3F)c12 [Example 2, 4-(4-(Azepan-1-yl)-8-fluoro-2-(((2R,7aS)-2-fluorotetrahydro-1H-pyrrolizin-7a(5H)-yl)methoxy)pyrido[4,3-d]pyrimidin-7-yl)-5-ethyl-6-fluoronaphthalen-2-ol]
10 | 9 | > 10000 | CCc1c(F)ccc2cc(O)cc(-c3ncc4c(N5CCC(C(N)=O)C5)nc(OC[C@@]56CCCN5C[C@H](F)C6)nc4c3F)c12 (stereo partly drawn) [Example 3, 1-(7-(8-Ethyl-7-fluoro-3-hydroxynaphthalen-1-yl)-8-fluoro-2-(((2R,7aS)-2-fluorotetrahydro-1H-pyrrolizin-7a(5H)-yl)methoxy)pyrido[4,3-d]pyrimidin-4-yl)pyrrolidine-3-carboxamide]
11 | 21 | > 10000 | CCc1c(F)ccc2cc(O)cc(-c3ncc4c(N5CCC[C@H]5C(N)=O)nc(OC[C@@]56CCCN5C[C@H](F)C6)nc4c3F)c12 [Example 4, (S)-1-(7-(8-Ethyl-7-fluoro-3-hydroxynaphthalen-1-yl)-8-fluoro-2-(((2R,7aS)-2-fluorotetrahydro-1H-pyrrolizin-7a(5H)-yl)methoxy)pyrido[4,3-d]pyrimidin-4-yl)pyrrolidine-2-carboxamide]
12 | 55 | > 10000 | CCc1c(F)ccc2cc(O)cc(-c3ncc4c(N5CCC(C(N)=O)CC5)nc(OC[C@@]56CCCN5C[C@H](F)C6)nc4c3F)c12 [Example 6, 1-(7-(8-Ethyl-7-fluoro-3-hydroxynaphthalen-1-yl)-8-fluoro-2-(((2R,7aS)-2-fluorotetrahydro-1H-pyrrolizin-7a(5H)-yl)methoxy)pyrido[4,3-d]pyrimidin-4-yl)piperidine-4-carboxamide]
13 | 82 | > 10000 | CCc1c(F)ccc2cc(O)cc(-c3ncc4c(N5CC(CC(N)=O)C5)nc(OC[C@@]56CCCN5C[C@H](F)C6)nc4c3F)c12 [Example 8, 2-(1-(7-(8-Ethyl-7-fluoro-3-hydroxynaphthalen-1-yl)-8-fluoro-2-(((2R,7aS)-2-fluorotetrahydro-1H-pyrrolizin-7a(5H)-yl)methoxy)pyrido[4,3-d]pyrimidin-4-yl)azetidin-3-yl)acetamide]
14 | 5 | 1340 | CCc1c(F)ccc2cc(O)cc(-c3ncc4c(N5CC6CC(O)C6C5)nc(OC[C@@]56CCCN5C[C@H](F)C6)nc4c3F)c12 (stereo partly drawn) [Example 9, 3-(7-(8-Ethyl-7-fluoro-3-hydroxynaphthalen-1-yl)-8-fluoro-2-(((2R,7aS)-2-fluorotetrahydro-1H-pyrrolizin-7a(5H)-yl)methoxy)pyrido[4,3-d]pyrimidin-4-yl)-3-azabicyclo[3.2.0]heptan-6-ol]
15 | 3 | > 10000 | CCc1c(F)ccc2cc(O)cc(-c3ncc4c(N5C[C@@H](O)[C@@H](O)C5)nc(OC[C@@]56CCCN5C[C@H](F)C6)nc4c3F)c12 [Example 11, (3S,4R)-1-(7-(8-Ethyl-7-fluoro-3-hydroxynaphthalen-1-yl)-8-fluoro-2-(((2R,7aS)-2-fluorotetrahydro-1H-pyrrolizin-7a(5H)-yl)methoxy)pyrido[4,3-d]pyrimidin-4-yl)pyrrolidine-3,4-diol]
16 | 38 | 3180 | CCc1c(F)ccc2cc(O)cc(-c3ncc4c(N5C[C@H]6CC[C@@H]5C(O)C6)nc(OC[C@@]56CCCN5C[C@H](F)C6)nc4c3F)c12 (stereo partly drawn) [Example 17, (1R,4S)-2-(7-(8-Ethyl-7-fluoro-3-hydroxynaphthalen-1-yl)-8-fluoro-2-(((2R,7aS)-2-fluorotetrahydro-1H-pyrrolizin-7a(5H)-yl)methoxy)pyrido[4,3-d]pyrimidin-4-yl)-2-azabicyclo[2.2.2]octan-6-ol]
